According to article PMC7925398, “Exploring the Therapeutic Potenital of the Leaderless Enterocins K1 and EJ97 in the Treatment of Vancomycin-Resistant Enterococcal Infection” (Frontiers in Microbiology, 2021):
≈ marks a conversion by molar mass, not a printed value. Where two headings read alike, the source gives them in different places. Where a SMILES comes first, the peptide text is derived from it. Where no end group is shown, it is not given here.

Assays:
[1] = Antibacterial effect (MIC) after incubation in blood, plasma or saline; type: cell-based; conditions: for MIC in blood: 1 mg/ml added to whole human blood (EDTA); for MIC in plasma after 8 h / MIC in plasma at 48 h: human plasma; for MIC in plasma after 8 h / MIC in saline after 8 h / MIC in blood after 8 h: 8 h incubation at 37°C; for MIC in plasma at 48 h / MIC in saline at 48 h / MIC in blood at 48 h: 48 h incubation at 37°C; for MIC in blood after 8 h / MIC in blood at 48 h: whole human blood (EDTA), 1 mg/ml; for MIC in blood compared to saline (fold higher): whole human blood vs saline
Method: To test whether the antibacterial effect of the bacteriocins was reduced in blood, an assay was performed where whole blood was collected from two healthy volunteers, with EDTA as an anticoagulant. Directly after blood sampling each bacteriocin was added to a concentration of 1mg/ml. […] Samples were collected at specific time points and bacteriocin activity was determined using the standard MIC assay as previously described ([Holo et al., 1991]). The experiment was repeated three times and the error bars represent the standard deviation.
The presented MIC values are the average of three experiments. Each bacteriocin was added to whole human blood to reach a concentration of 1 mg/ml. […] RT is short for room temperature.

[2] = tested on: E. faecium wildtype and eep-mutant strains; experiment: Lysozyme tolerance MIC assay; type: cell-based, Enterococcus faecium
Method: To test for lysozyme tolerance the wild type and mutant strains were grown over night and subjected to a standard MIC assay as previously described with twofold dilutions of lysozyme ([Holo et al., 1991]). In addition, a spot-on-lawn assay was performed with 10 μl 250 mg/ml lysozyme spotted on a lawn of cells.

human erythrocytes = experiment: Haemolysis assay; conditions: for Visual haemolysis (redness of supernatant compared to saline): 1 mg/ml in saline; for Visual haemolysis (redness of supernatant compared to saline) / Haemolysis of erythrocytes: 37°C; for Haemolysis of erythrocytes: 0.01, 0.1 and 1 mg/ml in saline, washed human erythrocytes (two volunteers, pooled), 1 h, supernatant absorbance 540 nm, repeated three times
Method: To assess the haemolytic effect whole blood was drawn from two healthy human volunteers, pooled and distributed in 1 ml aliquots. The aliquots were spun down at 1,000 × g for 5 min at 4°C to separate erythrocytes from plasma. The erythrocytes were washed three times with saline (0.9% NaCl) and resuspended in 100 μl saline. […] SDS in saline was added as a control, since bacteriocins were solved in saline. The samples were incubated at 37°C for 1 h and then spun down again to remove intact erythrocytes. The supernatant was measured for absorbance at 540 nm in order to measure degree of haemolysis. […] The experiment was repeated three times to allow for statistical analysis.
Whole human blood was mixed with each bacteriocin in saline to a final concentration of 1, 0.1, and 0.01 mg/ml. The samples were incubated at 37°C before the erythrocytes were spun down and the supernatant was read at OD540.

[3] = tested on: bacteriocin-resistant enterococcal cells (eep-mutants); conditions: colonies from inhibition zones of spot-on-lawn assay; 'mostly above'; cross-resistant
Method: Bacteriocin resistant mutants were obtained by a spot-on-lawn assay, where liquid bacteriocin was spotted on a lawn of indicator cells, using 10μl of bacteriocin in concentrations 0.5–5 mg/ml. The plates were incubated at 30°C overnight and resistant colonies were selected from the inhibition zones and re-streaked on new plates for isolated colonies. Pure cultures were made and stored in 15% glycerol at −80°C. The eep gene was PCR amplified and sequenced with specific primers: eep in E. faecium was amplified using primers Eepf4F + Eepf4R and sequenced using primers Eepf1R - Eepf6R and Eepf1F - Eepf6F. eep in E. faecalis was amplified using primers Eepfa1R + Eepfa3F and sequenced using primers Eepfa1R - Eepfa3R, Eepf1R - Eepf3R and Eepfa1F - Eepfa3F.
The samples were sent to GATC Biotech, Germany for sequencing. MIC of the resistant mutants was scored using a microtiter assay as previously described ([Holo et al., 1991]).

[4] = tested on: E. faecium LMGT 20705 and E. faecium 42 ACA-D6 0237; experiment: Effect of autoclaving on antibacterial activity, E. faecium; type: cell-based, Enterococcus faecium; conditions: in MilliQ water with 0.1% TFA, standard autoclaving; MIC against E. faecium LMGT 20705 and 42 ACA-D6 0237
Source text: (§1) A pre-requisite for intravenous administration is complete sterility of the compound ([Paese et al., 2017]). The simplest manner to achieve this is through autoclaving. However, this can cause degradation of the compound and therefore be detrimental to the antibacterial effect. Also, if the compound is degraded into unknown constituents this may cause unintended interactions. Therefore, we exposed the bacteriocins to a standard autoclaving procedure.
(§2) Each bacteriocin was solved in MilliQ water with 0.1% TFA and then autoclaved. […] Strains: 20705 is short for E. faecium LMGT 20705; 0237 for E. faecium 42 ACA-D6 0237; D6 for E. faecalis D6; and MMH594 for E. faecalis MMH594.

E. faecium = conditions: three parallels
Method: (§3) Unless otherwise specified the bacterial strains were grown in brain heart infusion (BHI) medium (Oxoid) at 37°C under aerobic conditions without shaking.
(§4) The peptides were stored at −20°C until use. The amino acid sequences of the bacteriocins are […] RPVA and […] […] Bacteriocin activity was determined using a microtiter assay as previously described ([Holo et al., 1991]).

E. faecalis = conditions: MIC = at least 50% growth inhibition, three parallels
Method: as §3, §4

[5] = tested on: E. faecalis D6 and E. faecalis MMH594; experiment: Effect of autoclaving on antibacterial activity, E. faecalis; type: cell-based, Enterococcus faecalis; conditions: in MilliQ water with 0.1% TFA, standard autoclaving; MIC against E. faecalis D6 and MMH594
Source text: as §1, §2

[6] = starting value (time not given), average of three experiments

CC1(C)S[C@@H]2[C@H](NC(=O)[C@H](N)c3ccccc3)C(=O)N2[C@H]1C(=O)O [Ampicillin, reference compound]
MIC in blood [1, 6]: 1.56 µg/mL (≈ 4.46 µM)
Loss of activity after 48 h incubation ([1]; 48 h incubation at 37°C in blood and similar conditions): fourfold

Lysozyme
Lysozyme MIC ([2]; E. faecium 7422c.522del (M, eep-mutant)): 1950 µg/mL
Lysozyme MIC ([2]; E. faecium 7422c.C64A (M, eep-mutant)): 1950 µg/mL
Lysozyme MIC ([2]; E. faecium E7422 (WT)): 15630 µg/mL
Lysozyme MIC ([2]; E. faecium P21 (WT), twofold dilutions of lysozyme): 15630 µg/mL
Lysozyme MIC ([2]; E. faecium P21c.G716A (M, eep-mutant)): 980 µg/mL
Lysozyme MIC ([2]; E. faecium P21c.ins7 (M, eep-mutant)): 980 µg/mL
Lysozyme MIC ([2]; E. faecium P21c.ins23 (M, eep-mutant)): 980 µg/mL
Lysozyme MIC ([2]; E. faecium P21c.ins43 (M, eep-mutant)): 980 µg/mL
Lysozyme MIC, wildtype strains ([2]; wildtype strains P21 and E7422): 15630 µg/mL

CCCCCCCCCCCCOS(=O)(=O)[O-].[Na+] [SDS, reference compound]
Visual haemolysis (redness of supernatant) (human erythrocytes): complete haemolysis

CC[C@H](C)[C@H](NC(=O)[C@H](CCC(=O)O)NC(=O)[C@H](Cc1ccc(O)cc1)NC(=O)[C@H](CCC(N)=O)NC(=O)[C@@H](NC(=O)[C@H](CC(C)C)NC(=O)[C@H](CCCCN)NC(=O)[C@H](CCCCN)NC(=O)[C@@H](NC(=O)[C@@H](NC(=O)[C@@H](NC(=O)CNC(=O)[C@@H](NC(=O)[C@@H]1CCCN1C(=O)[C@H](CC(N)=O)NC(=O)[C@H](Cc1ccccc1)NC(=O)[C@H](CCCCN)NC(=O)[C@H](Cc1ccccc1)NC(=O)[C@H](CCCCN)NC(=O)[C@@H](N)CCSC)[C@@H](C)O)[C@@H](C)O)[C@@H](C)CC)C(C)C)[C@@H](C)O)C(=O)N[C@@H](C)C(=O)N[C@@H](Cc1c[nH]c2ccccc12)C(=O)N[C@@H](Cc1ccccc1)C(=O)N[C@@H](CCCCN)C(=O)N[C@@H](CC(N)=O)C(=O)N[C@@H](CCCCN)C(=O)N[C@@H](Cc1c[nH]cn1)C(=O)NCC(=O)N[C@@H](Cc1ccc(O)cc1)C(=O)N[C@@H](Cc1ccc(O)cc1)C(=O)N1CCC[C@H]1C(=O)N[C@@H](Cc1c[nH]c2ccccc12)C(=O)N[C@@H](CCC(=O)O)C(=O)N[C@H](C(=O)N1CCC[C@H]1C(=O)N[C@@H](CCCNC(=N)N)C(=O)N[C@@H](CS)C(=O)O)[C@@H](C)CC [EntK1, enterocin K1] (H-MKFKFNPTGTIVKKLTQYEIAWFKNKHGYYPWEIPRC-OH; N-terminus and C-terminus assumed)
MIC in blood [1, 6]: 0.78 µg/mL (≈ 0.171 µM)
MIC in saline ([1]; 1 mg/ml in saline, first value (time not given), indicator strain not stated, average of three experiments): 0.19 µg/mL (≈ 0.0416 µM)
MIC in plasma ([1]; added to human plasma, starting value (time not given), average of three experiments): 0.78 µg/mL (≈ 0.171 µM)
MIC in plasma after 8 h ([1]; average of three experiments): 0.78 µg/mL (≈ 0.171 µM)
MIC in plasma at 48 h ([1]; average of three experiments): 1.56 µg/mL (≈ 0.342 µM)
MIC in saline after 8 h ([1]; average of three experiments): stayed at the same level
MIC in saline at 48 h ([1]; average of three experiments): 0.39 µg/mL (≈ 0.0854 µM)
MIC ratio blood to plasma ([1]; same at all time points, 37°C): 2 ×
MIC ratio plasma to saline ([1]; same at all time points, 37°C): 2 ×
MIC in blood after 8 h ([1]; average of three experiments): approximately 1.56 μg/ml
MIC in blood at 48 h ([1]; average of three experiments): 3.125 µg/mL (≈ 0.685 µM)
MIC in blood compared to saline (fold higher) ([1]; 37°C): 4 ×
Visual haemolysis (redness of supernatant compared to saline) (human erythrocytes): did not cause haemolysis
Haemolysis of erythrocytes (human erythrocytes): non-haemolytic
MIC against cells from resistant colonies [3]: above 25 μg/ml
Effect of autoclaving on MIC [4]: did not affect
MIC of EntK1 (E. faecium; strain E1469 (N, nosocomial), MIC = at least 50% growth inhibition): 0.39 µg/mL
MIC of EntK1 (E. faecium; strain E3160 (N, nosocomial), MIC = at least 50% growth inhibition): 0.39 µg/mL
MIC of EntK1 (E. faecium; strain E3449 (N, nosocomial), MIC = at least 50% growth inhibition): 0.39 µg/mL
MIC of EntK1 (E. faecium; strain E6072 (N, nosocomial), MIC = at least 50% growth inhibition): 0.19 µg/mL
MIC of EntK1 (E. faecium; strain E6094 (N, nosocomial), MIC = at least 50% growth inhibition): 0.39 µg/mL
MIC of EntK1 (E. faecium; strain E6856 (N, nosocomial), MIC = at least 50% growth inhibition): 0.39 µg/mL
MIC of EntK1 (E. faecium; strain E7195 (N, nosocomial), MIC = at least 50% growth inhibition): 0.39 µg/mL
MIC of EntK1 (E. faecium; strain E7422 (N, nosocomial), MIC = at least 50% growth inhibition): 0.19 µg/mL
MIC of EntK1 (E. faecium; strain E7660 (N, nosocomial), MIC = at least 50% growth inhibition): 0.39 µg/mL
MIC of EntK1 (E. faecium; strain E8150 (N, nosocomial), MIC = at least 50% growth inhibition): 0.78 µg/mL
MIC of EntK1 (E. faecium; strain LMGT 20705 (L, laboratory), MIC = at least 50% growth inhibition): <0.048 µg/mL
MIC of EntK1 (E. faecium; strain P21 (L, laboratory), MIC = minimum concentration inhibiting growth by at least 50% vs control, 200 μl culture): <0.048 µg/mL

MLAKIKAMIKKFPNPYTLAAKLTTYEINWYKQQYGRYPWERPVA [EntEJ97, enterocin EJ97]
MIC in plasma after 8 h ([1]; average of three experiments): 0.78 µg/mL
MIC in plasma at 48 h ([1]; average of three experiments): 1.56 µg/mL
MIC in saline after 8 h ([1]; average of three experiments): 0.39 µg/mL
MIC in saline at 48 h ([1]; average of three experiments): 0.78 µg/mL
MIC in blood after 8 h ([1]; average of three experiments): 1.56 µg/mL
MIC in blood at 48 h ([1]; average of three experiments): 3.125 µg/mL
MIC in blood compared to saline (fold higher) ([1]; 37°C): 2 ×
Visual haemolysis (redness of supernatant compared to saline) (human erythrocytes): did not cause haemolysis
Haemolysis of erythrocytes (human erythrocytes): non-haemolytic
MIC against cells from resistant colonies [3]: above 25 μg/ml
MIC of EntEJ97 (E. faecalis; strain 62 (L, laboratory)): 1.56 µg/mL
MIC of EntEJ97 (E. faecalis; strain D6 (L, laboratory)): 0.39 µg/mL
MIC of EntEJ97 (E. faecalis; strain HH22 (N, nosocomial)): 1.56 µg/mL
MIC of EntEJ97 (E. faecalis; strain MMH594 (N, nosocomial)): 0.39 µg/mL
MIC of EntEJ97 (E. faecalis; strain Merz96 (N, nosocomial)): 0.78 µg/mL
MIC of EntEJ97 (E. faecalis; strain OG1RF (L, laboratory)): 0.78 µg/mL
MIC of EntEJ97 (E. faecalis; strain Symbioflor (B, probiotic)): 0.39 µg/mL
MIC of EntEJ97 (E. faecalis; strain T3 (N, nosocomial)): 0.39 µg/mL
MIC of EntEJ97 (E. faecalis; strain TX0104 (N, nosocomial)): 0.39 µg/mL
MIC of EntEJ97 (E. faecalis; strain V583 (N, nosocomial; carries EntEJ97 immunity gene)): >25 µg/mL
Effect of autoclaving on MIC [5]: did not affect
